{
  "source": "patent US5830910A",
  "about": "(priority 1995, dated 1998)",
  "key": {"[1]": {"system": "neuronal [Ca^2+]i in cultured hippocampal neurons", "assay": "measurement of [Ca^2+]i, fura-2 imaging", "type": "cell-based, rat", "conditions": "for reduction in peak [Ca^2+]i response to glutamate: 1 h", "source_text": "Dissociated embryonic rat hippocampal cell cultures were established and maintained. All procedures conformed with the NIH Guide for the Care and Use of Laboratory Animals and were approved by the University of Kentucky Animal Care and Use Committee. Cultures were maintained on a polyethyleneimine-coated substrate in plastic 35-mm dishes or 96 wall plates (for cell survival studies) or glass-bottom 35-mm dishes (for [Ca^2+ ]i imaging studies). The cell density was ^~ 70-100 cells/mm^2. Cells were maintained in Eagle's minimum essential medium supplemented 10% with fetal bovine serum and containing 20 mM sodium pyruvate. […] Aβ25-35 (Bachem, lot ZJ744) and Aβ1-40 (Bachem, lot ZK600) were stored in the lyophilized form, and stocks were prepared immediately before use by dissolving the peptide at a concentration of 1 mM in sterile distilled water. […] Glutamate and colchicine (Sigma) were prepared as 200-500x stocks in saline. Cytochalasins D and E (Sigma) and calcium ionophore 4-bromo-A23187 (Calbiochem) were prepared as 500x stocks in dimethyl sulfoxide. Vitamin E (α-tocopherol; Sigma) was prepared as a 500x stock in ethanol. Nordihydroguaiaretic acid and FeSo4 were prepared as 500x stocks in sterile water.\nFluorescence ratio imaging of the Ca^2+ indicator dye fura-2 was used to quantify [Ca^2+ ]i in neuronal somata. Cells were incubated for 30-40 min in the presence of 2 μM acetoxymethyl ester form of the [Ca^2+ ]i indicator dye fura-2 and were then washed twice (2 ml/wash) with fresh medium and allowed to incubate at least 40 min before imaging. Immediately before imaging, the normal culture medium was replaced with Hanks' balanced saline solution (GIBCO) containing 10 mM HEPES buffer and 10 mM of glucose. Cells were imaged using a Zeiss Attofluor system with a oil objective or Quantex system with a 40x oil objective. The ratio of the fluorescence emission using two different excitation wavelengths (334 and 380 nm) was used to determine [Ca^2+ ]i. The system was calibrated using solutions containing either no Ca^2+ or a saturating level of Ca^2+ (1 mM) according to the following formula: [Ca^2+ ]i =KD [(R-Rmin) / (Rmax -R)] (F0 /FS). Values represent the average [Ca^2+ ]i in the neuronal cell body. Experimental treatments were added to the bathing medium by dilution from 100-500x stocks.\n(A) Cultures were pretreated for 1 hr with 100 nM cytochalasin D and then [Ca^2+ ]i in neurons was monitored prior to and following exposure to 50 μM glutamate. The records represent the mean [Ca^2+ ]i in 8-12 neurons. Similar results were obtained in 4 separate experiments.\n(B) Aβ-induced potentiation of [Ca^2+ ]i response to glutamate is abrogated by cytochalasin D. Cultures were left untreated (Control) or were exposed to 20 μM Aβ25-35 for 6 hr or cytochalasin D plus Aβ25-35 for 6 hr. The [Ca^2+ ]i was then monitored prior to following exposure to 50 μM glutamate. Values represent the means of 8-14 neurons. Similar results were obtained in 3 separate experiments.\n(C) Cultures were pretreated for 3 hr with 50 μM Aβ alone or in combination with 100 nM cytochalasin D. The [Ca^2+ ]i in neurons was then monitored prior to and following exposure to 50 mM KCl. Values represent the mean of 14-23 neurons. Similar results were obtained in a separate experiment.\n(D) Cultures were pretreated for 1 h with 100 nM cytochalasin D. The [Ca^2+ ]i in neurons was measured immediately prior to, and at 5 min following, exposure to the indicated concentrations of glutamate. Values represent the means and SEM of determinations made in 17-26 neurons. *P<0.05 (10 μM glutamate), P<0.02 (50 μM glutamate), P<0.01 (100 μAM glutamate) compared to corresponding control values.\nFIG. 9. Cultures were pretreated for 3 h with vehicle (control) or 10 μM jasplakinolide. The [Ca^2+ ]i was monitored prior to and following exposure to 50 μM glutamate. Values represent the mean of determinations made in 10-12 neurons. Similar results were obtained in two additional experiments.\nFIG. 10. […]"}, "[2]": {"system": "cultured hippocampal neurons", "type": "cell-based, rat", "conditions": "100 nM cotreated; 50 μM Aβ25-35, 24 hr"}, "[3]": {"system": "hippocampal region CA3 neurons", "assay": "kainate lesion paradigm, CA3 neurons", "type": "in vivo, rat (Sprague-Dawley)", "conditions": "for neurons damaged by kainate: intraventricular", "description": "A kainate lesion paradigm was employed in adult rats to determine whether cytochalasin D was also excitoprotective. Twenty-four adult male Sprague-Dawley rats (250-300 g) were divided into the indicated experimental groups (4-5 rats/group). Kainate (0.5 µg/[…]) was injected stereotaxically into region CA1 of the right hippocampus of anesthetized rats. Cytochalasin D (the indicated concentration in 1 μl of saline-1% DMSO) or vehicle was infused into the right lateral ventricle during a 5-10 min period immediately following kainate injection. Rats were killed 48 hr later and perfused transcardially with 4% paraformaldehyde. Brain sections (30 μm) were stained with cresyl violet and stained neurons in three adjacent 40X microscope fields of hippocampal region CA3 were counted (5 sections/rat) . The neuronal counts were performed in sections removed approximately 200-400 μm from the injection site. This method results in highly reproducible, 75-99%, neuronal loss in the CA3 region in over 99% of the rats injected with kainate (calculations based on 302 rats receiving intra-hippocampal kainate). […] Approximately 80% of the neurons were killed by kainate in control animals receiving an intracerebroventricular infusion of saline immediately following kainate administration.\nCresyl violet-stained coronal sections from brains of rats administered kainate alone (left) of kainate plus cytochalasin D (CyD; right). […] Lower micrographs are high magnification of a region of CA3 from the sections shown in the upper panels.\nFIG. 3. Counts of viable neurons were made in region CA3 of Sham-operated rats, and rats infused intraventricularly with vehicle or increasing concentration of cytochalasin D […] unilateral kainate injection into region CA1 of the hippocampus. Neuronal survival in the kainate injected hippocampus is expressed as a percentage of neurons in the contralateral hippocampus. Values represent the mean and SEM (4 or 5 rats/group). *p<0.01 compared to value for sham rats. **p<0.01 compared to value for vehicle-infused rats. (ANOVA with Scheffe's post-hoc test)."}, "[4]": {"system": "growth cone motility of hippocampal neurons", "assay": "growth cone motility", "type": "cell-based, rat"}},
  "note": "“Also recorded” adds a separate entry of the source.",
  "data": [
    {"smiles": "COc1cc2c(c(OC)c1OC)-c1ccc(OC)c(=O)cc1[C@@H](NC(C)=O)CC2", "note": "[Colchicine, colchicine, reference compound]", "values": [
      {"measurement": "effect on [Ca^2+]i response to glutamate", "setting": "[1]; 100 nM", "result": "did not attenuate"},
      {"measurement": "rest [Ca^2+]i, alone", "setting": "[1]; alone, data not shown", "result": "elevation of rest [Ca^2+ ]i"},
      {"measurement": "effect on [Ca^2+]i response to Aβ", "setting": "[1]; data not shown", "result": "did not attenuate"},
      {"measurement": "effect on Aβ neurotoxicity", "setting": "[2]", "result": "exacerbated Aβ toxicity"}
    ]},
    {"smiles": "C=C1[C@@H](C)[C@H]2[C@H](Cc3ccccc3)NC(=O)[C@]23[C@H](OC(C)=O)/C=C/[C@@](C)(O)C(=O)[C@@H](C)C/C=C/[C@H]3[C@@H]1O", "note": "[Cytochalasin D, cytochalasin D]", "values": [
      {"measurement": "effect on [Ca^2+]i response to calcium ionophore A23187", "setting": "[1]; 100 nM pretreatment, 500 nM A23187", "result": "did not attenuate; also recorded: does not affect"},
      {"measurement": "effect on K^+-induced elevation of [Ca^2+]i", "setting": "[1]; 100 nM pretreatment, 50 mM KCl", "result": "suppressed"},
      {"measurement": "reduction in peak [Ca^2+]i response to glutamate", "setting": "[1]; 100 nM, 10 μM glutamate, P<0.05", "result": "approximately 60 nM"},
      {"measurement": "reduction in peak [Ca^2+]i response to glutamate", "setting": "[1]; 100 nM, 50 μM glutamate, P<0.02", "result": "approximately 170 nM"},
      {"measurement": "reduction in peak [Ca^2+]i response to glutamate", "setting": "[1]; 100 nM, 100 μM glutamate, P<0.01", "result": "~460", "unit": "nM"},
      {"measurement": "rest [Ca^2+]i after Aβ exposure", "setting": "[1]; 100 nM, 1 h pretreatment, 50 μM Aβ for 3 and 6 h", "result": "not significantly elevated"},
      {"measurement": "reduction of [Ca^2+]i response to glutamate", "setting": "[1]; 100 nM, 1 hr pretreatment, 50 μM glutamate", "result": "approximately 30%"},
      {"measurement": "effect on Aβ-induced potentiation of [Ca^2+]i response to glutamate", "setting": "[1]; Aβ pretreatment, 50 μM glutamate", "result": "completely blocked; also recorded: suppressed; also recorded: abrogated"},
      {"measurement": "[Ca^2+]i responses to glutamate, Aβ, and membrane depolarization", "setting": "[1]; pretreated", "result": "attenuated"},
      {"measurement": "neurons damaged by kainate", "setting": "[3]; 0.1 μg", "result": 20, "unit": "%"},
      {"measurement": "neurons damaged by kainate", "setting": "[3]; 1.00 μg", "result": 20, "unit": "%"},
      {"measurement": "reduction in neuronal injury to CA3 neurons after kainate", "setting": "[3]; intraventricular infusion, dose related, 48 hr", "result": "highly significant reduction in neuronal injury to CA3 neurons; also recorded: marked reduction in the damage"},
      {"measurement": "growth cone motility", "setting": "[4]", "result": "inhibit growth cone motility"},
      {"measurement": "effect on Aβ neurotoxicity", "setting": "[2]", "result": "essentially eliminated"}
    ]}
  ]
}
